The results in this text go back to patent US10959432B2, “Microbiocidal oxadiazole derivatives” (Syngenta Participations AG, priority 2016, dated 2021).

For data set [1], the system named is Glomerella laqenarium (Colletotrichum lagenarium). The data set is described as follows: Fungicidal activity against Glomerella lagenarium (Colletotrichum lagenarium) liquid culture / cucumber / preventative (anthracnose). The following applies: Colletotrichum orbiculare; 20 ppm in the applied formulation; liquid culture in PDB, 24° C., 3 to 4 days after application; read-out: disease control compared to untreated control (inhibition of growth measured photometrically). It is filed as cell-based. In short, it runs like this: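 Cryostored conidia mixed into potato dextrose broth and added to test compound (from DMSO solution) in microtiter plates. Incubated at 24 °C; growth inhibition read photometrically 3 to 4 days after application, as percent activity versus untreated check.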

A further data set concerns Phakopsora pachyrhizi. The data set is described as follows: Fungicidal activity against Phakopsora pachyrhizi / soybean / leaf disc preventative (Asian soybean rust). The following applies: foliar, 200 ppm in the applied formulation, soybean leaf disks, preventative (inoculated one day after application), assessed 12 to 14 days after application, read-out: disease control compared to untreated control leaf disks. Format: in vivo. In short, it runs like this: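 Soybean leaf discs on water agar sprayed with formulated compound diluted in water; spore suspension sprayed on lower leaf surface one day later. Incubated 24-36 h dark at 20° C, 75% rh, then 20° C, 12 h light/day, 75% rh. Percent disease control versus untreated scored 12 to 14 days after application.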

The test system of another data set is Uromyces viciae-fabae. The data set can be described thus: Fungicidal activity against Uromyces viciae-fabae / field bean / leaf disc preventative (faba-bean rust). Format: in vivo. The following applies: foliar, 288 h, 100 ppm in the applied formulation, field bean leaf discs, preventative (inoculated two hours after application), assessed 12 days after application, read-out: disease control compared to untreated control leaf discs. In short, it runs like this: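 Field bean leaf discs on water agar treated with 10 μl compound in acetone plus spreader, then spray-inoculated on the lower surface with Uromyces viciae-fabae spores 2 h later. Incubation at 22 °C, 18 h day, 70% RH; percent disease control versus untreated scored 12 days after application, compounds at 100 ppm.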

For data set [2], the system named is Puccinia recondita f. sp. tritici. The data set is described as follows: Fungicidal activity against Puccinia recondita f. sp. tritici / wheat / leaf disc preventative (brown rust). The following applies: foliar, 200 ppm in the applied formulation, wheat leaf segments cv. Kanzler, preventative (inoculated 1 day after application), assessed 7 to 9 days after application, read-out: disease control compared to untreated control leaf disks. It is filed as in vivo. The method in brief: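 Wheat cv. Kanzler leaf segments on agar sprayed with formulated compound diluted in water, inoculated with P. recondita spores 1 day later. Incubated at 19C, 75% rh, 12 h light/12 h dark; scored 7 to 9 days after application as percent disease control versus untreated segments. Test rate 200 ppm.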

For data set [3] the test system is unchanged. The data set can be described thus: Fungicidal activity against Puccinia recondita f. sp. tritici / wheat / leaf disc curative (brown rust). It is filed as in vivo. The following applies: foliar, 200 ppm in the applied formulation, wheat leaf segments cv. Kanzler, curative (applied 1 day after inoculation), assessed 6 to 8 days after application, read-out: disease control compared to untreated control leaf disks. The method in brief: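 Wheat cv. Kanzler leaf segments on agar, spore-inoculated, held dark at 19° C./75% RH; formulated compound in water sprayed 1 day post-inoculation (curative). Incubated 19° C., 75% RH, 12 h light/12 h dark; percent disease control vs untreated scored 6 to 8 days after application.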

Where only a bound is given, the exact number is not on record here.

Compound `O=C(NCC1CCCC1)c1ccc(-c2noc(C(F)(F)F)n2)cc1F` [Compound 2b.8, N (cyclopentylmethyl)-2-fluoro-4-[5-(trifluoromethyl)-1,2,4-oxadiazol-3-yl]benzamide] returned a melting point of 122 to 125.6 °C. Further, in data set [1], the inhibition at 20 ppm was at least 80%. The pest or weed control at 200 ppm in the data set with Phakopsora pachyrhizi is at least 80%. Also, in the data set with Uromyces viciae-fabae, the pest or weed control at 100 ppm is at least 80%.

In the case of `CC(COC(F)F)NC(=O)c1ccc(-c2noc(C(F)(F)F)n2)cc1` (stereo not shown) [Compound 3a.43, N-[2-(difluoromethoxy)-1-methyl-ethyl]-4-[5-(trifluoromethyl)-1,2,4-oxadiazol-3-yl]benzamide], the melting point lay in the range of 128 to 130 °C. The pest or weed control at 200 ppm in data set [2] is at least 80%. For the same compound, in data set [1], the inhibition at 20 ppm is at least 80%. Also, in the data set on Phakopsora pachyrhizi, the pest or weed control at 200 ppm was at least 80%. Also, in data set [3], the pest or weed control at 200 ppm is at least 80%.

Take `O=C(NCCOC(F)F)c1ccc(-c2noc(C(F)(F)F)n2)cc1` [Compound 3a.45, N-[2-(difluoromethoxy)ethyl]-4-[5-(trifluoromethyl)-1,2,4-oxadiazol-3-yl]benzamide]: the melting point was 117 to 120 °C. In addition, in data set [2], the pest or weed control at 200 ppm was at least 80%. Also, the inhibition at 20 ppm in data set [1] is at least 80%. In addition, the pest or weed control at 200 ppm with Phakopsora pachyrhizi is at least 80%. Also, the pest or weed control at 200 ppm in data set [3] is at least 80%.

Regarding `CC(C)CC(C)NC(=O)c1ccc(-c2noc(C(F)(F)F)n2)cc1F` (stereo not shown) [Compound 3b.7, N-(1,3-dimethylbutyl)-2-fluoro-4-[5-(trifluoromethyl)-1,2,4-oxadiazol-3-yl]benzamide], the melting point lay in the range of 108.5 to 110.4 °C. Further, the pest or weed control at 200 ppm in data set [2] is at least 80%. Also, the inhibition at 20 ppm in data set [1] is at least 80%. Moreover, the pest or weed control at 200 ppm in the data set on Phakopsora pachyrhizi was at least 80%. Besides, in the data set on Uromyces viciae-fabae, the pest or weed control at 100 ppm is at least 80%.

`Cc1ccc(CNC(=O)c2ccc(-c3noc(C(F)(F)F)n3)cc2)cc1` [Compound 4a.1, N-(p-tolylmethyl)-4-[5-(trifluoromethyl)-1,2,4-oxadiazol-3-yl]benzamide]: the melting point lay in the range of 198 to 203 °C. For the same compound, the inhibition at 20 ppm in data set [1] is at least 80%. The pest or weed control at 200 ppm in the data set with Phakopsora pachyrhizi is at least 80%. For the same compound, the pest or weed control at 100 ppm in the data set on Uromyces viciae-fabae is at least 80%.

In turn, `Cc1cccc(CNC(=O)c2ccc(-c3noc(C(F)(F)F)n3)cc2)c1` [Compound 4a.2, N-(m-tolylmethyl)-4-[5-(trifluoromethyl)-1,2,4-oxadiazol-3-yl]benzamide] came in with a melting point of 135 to 141 °C. For the same compound, the pest or weed control at 200 ppm in data set [2] is at least 80%. For the same compound, the inhibition at 20 ppm in data set [1] is at least 80%. Moreover, in the data set with Phakopsora pachyrhizi, the pest or weed control at 200 ppm was at least 80%. Moreover, the pest or weed control at 100 ppm in the data set with Uromyces viciae-fabae was at least 80%.

`COc1ccc(CNC(=O)c2ccc(-c3noc(C(F)(F)F)n3)cc2)cc1` [Compound 4a.3, N-[(4-methoxyphenyl)methyl]-4-[5-(trifluoromethyl)-1,2,4-oxadiazol-3-yl]benzamide] registered a melting point of 154 to 159 °C. Also, the pest or weed control at 200 ppm in data set [2] was at least 80%. Besides, the inhibition at 20 ppm in data set [1] is at least 80%. The pest or weed control at 200 ppm with Phakopsora pachyrhizi is at least 80%. Moreover, the pest or weed control at 100 ppm with Uromyces viciae-fabae was at least 80%.

Turning to `O=C(NCc1ccccc1F)c1ccc(-c2noc(C(F)(F)F)n2)cc1F` [Compound 4b.1, 2-fluoro-N-[(2-fluorophenyl)methyl]-4-[5-(trifluoromethyl)-1,2,4-oxadiazol-3-yl]benzamide], the melting point was in the range of 132 to 136 °C. Further, the pest or weed control at 200 ppm in data set [2] was at least 80%. Moreover, the inhibition at 20 ppm in data set [1] was at least 80%. For the same compound, the pest or weed control at 200 ppm in the data set on Phakopsora pachyrhizi is at least 80%. Also, the pest or weed control at 100 ppm in the data set on Uromyces viciae-fabae is at least 80%.

For `O=C(NCc1ccc(F)cc1)c1ccc(-c2noc(C(F)(F)F)n2)cc1F` [Compound 4b.2], the melting point was 145 to 147 °C. Also, the pest or weed control at 200 ppm in data set [2] is at least 80%. In addition, the inhibition at 20 ppm in data set [1] is at least 80%. Also, the pest or weed control at 200 ppm with Phakopsora pachyrhizi was at least 80%. Also, the pest or weed control at 100 ppm in the data set on Uromyces viciae-fabae was at least 80%.

Compound `CC(NC(=O)c1ccc(-c2noc(C(F)(F)F)n2)cc1F)c1ccccc1` (stereo not shown) [Compound 4b.3, 2-fluoro-N-(1-phenylethyl)-4-[5-(trifluoromethyl)-1,2,4-oxadiazol-3-yl]benzamide] displayed a melting point of 121.1 to 123.7 °C. Also, the pest or weed control at 200 ppm in data set [2] is at least 80%. The pest or weed control at 200 ppm with Phakopsora pachyrhizi is at least 80%. Besides, the pest or weed control at 100 ppm in the data set with Uromyces viciae-fabae is at least 80%.

As for `O=C(NCc1cccc(F)c1)c1ccc(-c2noc(C(F)(F)F)n2)cc1F` [Compound 4b.4, 2-fluoro-N-[(3-fluorophenyl)methyl]-4-[5-(trifluoromethyl)-1,2,4-oxadiazol-3-yl]benzamide], the melting point is 129.4 to 130.9 °C. For the same compound, in data set [2], the pest or weed control at 200 ppm was at least 80%. The pest or weed control at 200 ppm with Phakopsora pachyrhizi is at least 80%. Further, the pest or weed control at 100 ppm with Uromyces viciae-fabae is at least 80%.

In the case of `COc1ccccc1CNC(=O)c1ccc(-c2noc(C(F)(F)F)n2)cc1F` [Compound 4b.5, 2-fluoro-N-[(2-methoxyphenyl)methyl]-4-[5-(trifluoromethyl)-1,2,4-oxadiazol-3-yl]benzamide], the melting point was 113.3 to 114.8 °C. Moreover, in data set [2], the pest or weed control at 200 ppm is at least 80%. The inhibition at 20 ppm in data set [1] was at least 80%. In the data set on Phakopsora pachyrhizi, the pest or weed control at 200 ppm was at least 80%. Besides, the pest or weed control at 100 ppm with Uromyces viciae-fabae is at least 80%.

Consider `O=C(NCCc1ccc(F)cc1)c1ccc(-c2noc(C(F)(F)F)n2)cc1F` [Compound 4b.7, 2-fluoro-N-[2-(4-fluorophenyl)ethyl]-4-[5-(trifluoromethyl)-1,2,4-oxadiazol-3-yl]benzamide], for which the melting point lay in the range of 128.2 to 129.4 °C. Besides, in data set [2], the pest or weed control at 200 ppm was at least 80%. The inhibition at 20 ppm in data set [1] is at least 80%. Moreover, the pest or weed control at 200 ppm with Phakopsora pachyrhizi is at least 80%. Besides, the pest or weed control at 100 ppm with Uromyces viciae-fabae was at least 80%.

Consider `O=C(NCc1ncc(C(F)(F)F)cc1Cl)c1ccc(-c2noc(C(F)(F)F)n2)cc1F` [Compound 5b.4, N-[[3-chloro-5-(trifluoromethyl)-2-pyridyl]methyl]-2-fluoro-4-[5-(trifluoromethyl)-1,2,4-oxadiazol-3-yl]benzamide], for which the melting point fell in the range of 126.6 to 128.3 °C. For the same compound, the pest or weed control at 200 ppm with Phakopsora pachyrhizi is at least 80%. The pest or weed control at 100 ppm in the data set on Uromyces viciae-fabae was at least 80%.

`O=C(NCCc1ncc(C(F)(F)F)cc1Cl)c1ccc(-c2noc(C(F)(F)F)n2)cc1F` [Compound 5b.5, N-[2-[3-chloro-5-(trifluoromethyl)-2-pyridyl]ethyl]-2-fluoro-4-[5-(trifluoromethyl)-1,2,4-oxadiazol-3-yl]benzamide] returned a melting point of 144.9 to 146.5 °C. The pest or weed control at 200 ppm with Phakopsora pachyrhizi is at least 80%. In addition, the pest or weed control at 100 ppm with Uromyces viciae-fabae is at least 80%.

Turning to `Cc1ccc(CNC(=O)c2ccc(-c3noc(C(F)(F)F)n3)cc2Cl)o1` [Compound 5b.16, 2-chloro-N-[(5-methyl-2-furyl)methyl]-4-[5-(trifluoromethyl)-1,2,4-oxadiazol-3-yl]benzamide], the pest or weed control at 200 ppm (in data set [2]; in the data set on Phakopsora pachyrhizi; in data set [3]) was at least 80% in each case. In addition, in data set [1], the inhibition at 20 ppm is at least 80%. Also, the pest or weed control at 100 ppm in the data set with Uromyces viciae-fabae is at least 80%.

Take `O=C(NCc1ccco1)c1ccc(-c2noc(C(F)(F)F)n2)cc1Cl` [Compound 5b.17, 2-chloro-N-(2-furylmethyl)-4-[5-(trifluoromethyl)-1,2,4-oxadiazol-3-yl]benzamide]: the pest or weed control at 200 ppm (in data set [2]; in the data set on Phakopsora pachyrhizi; in data set [3]) was at least 80% throughout. The inhibition at 20 ppm in data set [1] was at least 80%. Further, the pest or weed control at 100 ppm with Uromyces viciae-fabae was at least 80%.

Turning to `O=C(NCc1nccs1)c1ccc(-c2noc(C(F)(F)F)n2)cc1F` [Compound 5b.19, 2-fluoro-N-(thiazol-2-ylmethyl)-4-[5-(trifluoromethyl)-1,2,4-oxadiazol-3-yl]benzamide], the pest or weed control at 200 ppm (in data set [2]; in the data set on Phakopsora pachyrhizi; in data set [3]) was at least 80% in each case. Further, the inhibition at 20 ppm in data set [1] is at least 80%. The pest or weed control at 100 ppm in the data set on Uromyces viciae-fabae was at least 80%.

Usually melting point stands for the temperature of the solid-liquid transition. In general, inhibition refers to the drop in the measured response relative to a control, in per cent.
